Results published in patent US20080207731A1, “3-(3-INDOLYL) PROPIONIC ACID CALCIUM SALT AND METHOD OF MAKING 3-(3-INDOLYL) PROPIONIC ACID FREE ACID THEREFROM” (Intellect Neurosciences, Inc., priority 2006, published 2008).
Where a name gives a salt, the structure may show the parent alone.

What was measured:
[1] = solubility in water of 3-IPA salts; type: physicochemical
[2] = system: cultured neurons; settings: background statement; cited from earlier work

| SMILES | solubility in water ([1]; compared to the calcium salts of other acids present in the reaction mixture (e.g., acrylic acid or acetic acid)) | solubility ([1]; compared to the free acid form of 3-IPA) | protection from toxicity of the Aβ peptide [2] |
| --- | --- | --- | --- |
| O=C(O)CCc1c[nH]c2ccccc12 [3-IPA calcium, calcium salt of 3-(3-indolyl)propionic acid] | much less soluble in water | low solubility |  |
| O=C(O)CCc1c[nH]c2ccccc12 [3-IPA, 3-(3-indolyl)propionic acid] |  |  | protect cultured neurons from the toxicity of the Aβ peptide |
